Assay results as given in patent US11286266B2, “1-imidazothiadiazolo-2H-pyrrol-5-one derivatives” (UCB Biopharma SRL, priority 2018, dated 2022).
“And” between values parts separate entries of the source, which are not always exact repeats. Equal values may be shown once.

Molecular target: T1, Human SV2A (Homo sapiens, UniProt Q7L0J3)
T1 construct: expressed in transfected cells; host or cells: human embryonic kidney (HEK) cells; membrane preparations
Experiment: Binding assay to SV2A (radioligand competition, HEK membranes)
Settings: human SV2A in HEK membranes, 60 min at 37° C., pIC50 corrected to pKi by Cheng and Prusoff
Procedure: Human SV2A and SV2C proteins were expressed in human embryonic kidney (HEK) cells. HEK SV2A and HEK SV2C membrane preparations were prepared as described in Gillard et al (Eur. J. Pharmacol. 2006, 536, 102-108). To measure affinity of non-labelled compounds, competition experiments were performed as follow: Membranes expressing SV2 proteins (5 to 15 μg proteins per assay) were incubated for 60 min at 37° C. with either [^3H]-2-[4-(3-azidophenyl)-2-oxo-1-pyrrolidinyl]butanamide (5 nM) and/or [^3H]-4R-(2-chloro-2,2-difluoroethyl)-1-{[2-(methoxymethyl)-6-(trifluoromethyl)imidazo[2,1-b][1,3,4]thiadiazol-5-yl]methyl}pyrrolidin-2-one (25 nM) in 0.2 ml of a 50 mM Tris-HCl buffer (pH 7.4) containing 2 mM MgCl2, 0.1% dimethylsulfoxide and ten increasing concentrations of non-labelled test compound (0.1 nM to 10 μM). At the end of the incubation period, the membrane-bound radioligand was recovered by rapid filtration through GF/C glass fiber filters pre-soaked in 0.1% polyethyleneimine. Membranes were washed with at least 4 times the assay volume of ice-cold 50 mM Tris HCl buffer (pH 7.4). The filters were dried and the radioactivity determined by liquid scintillation. […] Measured affinity plC50 values were corrected to pKi according to Cheng and Prusoff (Biochem. Pharmacol. 1973, 22(23), 3099-3108).

T1 sequence (Q7L0J3 whole entry): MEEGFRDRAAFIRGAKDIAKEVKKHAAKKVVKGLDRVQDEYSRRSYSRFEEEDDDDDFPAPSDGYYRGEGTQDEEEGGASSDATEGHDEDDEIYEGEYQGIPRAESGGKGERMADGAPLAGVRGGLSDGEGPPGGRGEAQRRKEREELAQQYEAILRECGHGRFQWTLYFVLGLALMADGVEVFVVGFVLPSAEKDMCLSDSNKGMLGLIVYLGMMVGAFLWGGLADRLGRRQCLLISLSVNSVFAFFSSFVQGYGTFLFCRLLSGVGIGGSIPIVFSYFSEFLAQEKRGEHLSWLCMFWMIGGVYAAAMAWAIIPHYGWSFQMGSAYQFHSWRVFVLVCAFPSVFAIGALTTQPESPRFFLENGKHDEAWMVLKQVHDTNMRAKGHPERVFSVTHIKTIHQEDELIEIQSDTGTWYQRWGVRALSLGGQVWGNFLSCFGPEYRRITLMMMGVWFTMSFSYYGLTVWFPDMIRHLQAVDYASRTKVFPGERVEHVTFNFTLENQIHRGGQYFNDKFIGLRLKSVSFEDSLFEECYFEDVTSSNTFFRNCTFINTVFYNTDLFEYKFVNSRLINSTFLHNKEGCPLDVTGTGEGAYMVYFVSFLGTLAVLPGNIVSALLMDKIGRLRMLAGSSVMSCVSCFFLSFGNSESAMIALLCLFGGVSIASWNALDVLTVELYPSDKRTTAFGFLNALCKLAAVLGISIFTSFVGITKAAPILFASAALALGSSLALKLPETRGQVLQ

| Compound | Ki |
| --- | --- |
| COCc1nn2c(CN3CC(C4CC4(F)F)=CC3=O)c(C(F)(F)F)nc2s1 (single isomer, unassigned) [Example 17-A, 3-(2,2-difluorocyclopropyl)-1-[[2-(methoxymethyl)-6-(trifluoromethyl)imidazo[2,1-b][1,3,4]thiadiazol-5-yl]methyl]-2H-pyrrol-5-one] | 3.16 to 10 nM |
| COCc1nn2c(CN3CC(C4CC4(F)F)=CC3=O)c(C)nc2s1 (single isomer, unassigned) [Example 18-A, 1-[[2-(methoxymethyl)-6-methyl-imidazo[2,1-b][1,3,4]thiadiazol-5-yl]methyl]-3-[2,2-difluorocyclopropyl]-2H-pyrrol-5-one] | 10 to 31.6 nM |
| COCc1nn2c(CN3CC(C4CC4(F)F)=CC3=O)c(C)nc2s1 (single isomer, unassigned) [Example 18-B, 1-[[2-(methoxymethyl)-6-methyl-imidazo[2,1-b][1,3,4]thiadiazol-5-yl]methyl]-3-[2,2-difluorocyclopropyl]-2H-pyrrol-5-one] | 31.6 to 316 nM |
| COCc1nn2c(CN3CC(C4CC4(F)F)=CC3=O)c(C(F)F)nc2s1 (single isomer, unassigned) [Example 19-A, 1-[[6-(difluoromethyl)-2-(methoxymethyl)imidazo[2,1-b][1,3,4]thiadiazol-5-yl]methyl]-3-[2,2-difluorocyclopropyl]-2H-pyrrol-5-one] | 3.16 to 10 nM |
| CCCC1=CC(=O)N(Cc2c(C(F)(F)F)nc3sc(COC)nn23)C1 [Example 1, 1-[[2-(methoxymethyl)-6-(trifluoromethyl)imidazo[2,1-b][1,3,4]thiadiazol-5-yl]methyl]-3-propyl-2H-pyrrol-5-one] | 3.16 to 10 nM |
| COCc1nn2c(CN3CC(CC(F)(F)F)=CC3=O)c(C(F)(F)F)nc2s1 [Example 2, 1-[[2-(methoxymethyl)-6-(trifluoromethyl)imidazo[2,1-b][1,3,4]thiadiazol-5-yl]methyl]-3-(2,2,2-trifluoroethyl)-2H-pyrrol-5-one] | 10 to 31.6 nM |
| COCc1nn2c(CN3CC(CCC(F)(F)F)=CC3=O)c(C(F)(F)F)nc2s1 [Example 3, 1-[[2-(methoxymethyl)-6-(trifluoromethyl)imidazo[2,1-b][1,3,4]thiadiazol-5-yl]methyl]-3-(3,3,3-trifluoropropyl)-2H-pyrrol-5-one] | 3.16 to 10 nM |
| CCCC1=CC(=O)N(Cc2c(C)nc3sc(COC)nn23)C1 [Example 4, 1-[[2-(methoxymethyl)-6-methyl-imidazo[2,1-b][1,3,4]thiadiazol-5-yl]methyl]-3-propyl-2H-pyrrol-5-one] | 3.16 to 10 nM |
| COCc1nn2c(CN3CC(CC(F)(F)F)=CC3=O)c(Cl)nc2s1 [Example 5, 1-[[6-chloro-2-(methoxymethyl)imidazo[2,1-b][1,3,4]thiadiazol-5-yl]methyl]-3-(2,2,2-trifluoroethyl)-2H-pyrrol-5-one] | 10 to 31.6 nM |
| CCCC1=CC(=O)N(Cc2c(Cl)nc3sc(COC)nn23)C1 [Example 6, 1-[[6-chloro-2-(methoxymethyl)imidazo[2,1-b][1,3,4]thiadiazol-5-yl]methyl]-3-propyl-2H-pyrrol-5-one] | 3.16 to 10 nM |
| COCc1nn2c(CN3CC(CCC(F)(F)F)=CC3=O)c(Cl)nc2s1 [Example 7, 1-[[6-chloro-2-(methoxymethyl)imidazo[2,1-b][1,3,4]thiadiazol-5-yl]methyl]-3-(3,3,3-trifluoropropyl)-2H-pyrrol-5-one] | 3.16 to 10 nM |
| CCCC1=CC(=O)N(Cc2c(C(F)F)nc3sc(COC)nn23)C1 [Example 8, 1-[[6-(difluoromethyl)-2-(methoxymethyl)imidazo[2,1-b][1,3,4]thiadiazol-5-yl]methyl]-3-propyl-2H-pyrrol-5-one] | 3.16 to 10 nM |
| COCc1nn2c(CN3CC(CC(F)(F)F)=CC3=O)c(C)nc2s1 [Example 9, 1-[[2-(methoxymethyl)-6-methyl-imidazo[2,1-b][1,3,4]thiadiazol-5-yl]methyl]-3-(2,2,2-trifluoroethyl)-2H-pyrrol-5-one] | 3.16 to 10 nM |
| COCc1nn2c(CN3CC(CC(F)(F)F)=CC3=O)c(C(F)F)nc2s1 [Example 10, 1-[[6-(difluoromethyl)-2-(methoxymethyl)imidazo[2,1-b][1,3,4]thiadiazol-5-yl]methyl]-3-(2,2,2-trifluoroethyl)-2H-pyrrol-5-one] | 3.16 to 10 nM |
| COCc1nn2c(CN3CC(CC(F)(F)F)=CC3=O)c(C3(F)CC3)nc2s1 [Example 11, 1-[[6-(1-fluorocyclopropyl)-2-(methoxymethyl)imidazo[2,1-b][1,3,4]thiadiazol-5-yl]methyl]-3-(2,2,2-trifluoroethyl)-2H-pyrrol-5-one] | 10 to 31.6 nM and 3.16 to 10 nM |
| COCc1nn2c(CN3CC(CC(F)(F)Cl)=CC3=O)c(C(F)(F)F)nc2s1 [Example 12, 3-(2-chloro-2,2-difluoro-ethyl)-1-[[2-(methoxymethyl)-6-(trifluoromethyl)imidazo[2,1-b][1,3,4]thiadiazol-5-yl]methyl]-2H-pyrrol-5-one] | 3.16 to 10 nM |
| COCc1nn2c(CN3CC(CCC(F)(F)F)=CC3=O)c(C)nc2s1 [Example 13, 1-[[2-(methoxymethyl)-6-methyl-imidazo[2,1-b][1,3,4]thiadiazol-5-yl]methyl]-3-(3,3,3-trifluoropropyl)-2H-pyrrol-5-one] | 3.16 to 10 nM |
| COCc1nn2c(CN3CC(CCC(F)(F)F)=CC3=O)c(C(F)F)nc2s1 [Example 14, 1-[[6-(difluoromethyl)-2-(methoxymethyl)imidazo[2,1-b][1,3,4]thiadiazol-5-yl]methyl]-3-(3,3,3-trifluoropropyl)-2H-pyrrol-5-one] | 3.16 to 10 nM |
| COCc1nn2c(CN3CC(CC(C)(F)F)=CC3=O)c(C(F)(F)F)nc2s1 [Example 15, 3-(2,2-difluoropropyl)-1-[[2-(methoxymethyl)-6-(trifluoromethyl)imidazo[2,1-b][1,3,4]thiadiazol-5-yl]methyl]-2H-pyrrol-5-one] | 3.16 to 10 nM |
| COCc1nn2c(CN3CC(CC(C)(F)F)=CC3=O)c(C(F)F)nc2s1 [Example 16, 1-[[6-(difluoromethyl)-2-(methoxymethyl)imidazo[2,1-b][1,3,4]thiadiazol-5-yl]methyl]-3-(2,2-difluoropropyl)-2H-pyrrol-5-one] | 3.16 to 10 nM |
| COCc1nn2c(CN3CC(CC(C)(F)F)=CC3=O)c(C)nc2s1 [Example 20, 3-(2,2-difluoropropyl)-1-[[2-(methoxymethyl)-6-methyl-imidazo[2,1-b][1,3,4]thiadiazol-5-yl]methyl]-2H-pyrrol-5-one] | 10 to 31.6 nM |
| Cc1nc2sc(CO)nn2c1CN1CC(CCC(F)(F)F)=CC1=O [Example 21, 1-[[2-(hydroxymethyl)-6-methyl-imidazo[2,1-b][1,3,4]thiadiazol-5-yl]methyl]-3-(3,3,3-trifluoropropyl)-2H-pyrrol-5-one] | 31.6 to 316 nM |
| O=C1C=C(CCC(F)(F)F)CN1Cc1c(C(F)F)nc2sc(CO)nn12 [Example 22, 1-[[6-(difluoromethyl)-2-(hydroxymethyl)imidazo[2,1-b][1,3,4]thiadiazol-5-yl]methyl]-3-(3,3,3-trifluoropropyl)-2H-pyrrol-5-one] | 31.6 to 316 nM |
| O=C1C=C(CC(F)(F)F)CN1Cc1c(C(F)F)nc2sc(CO)nn12 [Example 23, 1-[[6-(difluoromethyl)-2-(hydroxymethyl)imidazo[2,1-b][1,3,4]thiadiazol-5-yl]methyl]-3-(2,2,2-trifluoroethyl)-2H-pyrrol-5-one] | 31.6 to 316 nM |
